Assay results taken from patent US20250388604A1, “Compounds and Their Use as PDE4 Activators” (Mironid Limited, priority 2022, published 2025).

Each molecule was assayed on m-IMCD3 cells (assay: Inhibition of PGE2-stimulated in vitro cyst formation in m-IMCD3 cells). Settings: Mus musculus, mIMCD3, 144 h, 3 μM; mean cyst area, 100% for (DMSO + PGE2) and 0% for DMSO control; 6 days of culture; read-out: % Cyst area after incubation with 3 μM test compound.
Format: cell-based, mouse
Protocol: HEK 293 and MDCK cells (Public Health England, Cell Culture Collections) were maintained in Dulbecco's Modified Eagle's Medium (DMEM) supplemented with 10% (v/v) fetal bovine serum (FBS) (Seralab), 2 mM L-glutamine and 100 U/mL penicillin streptomycin cocktail (ThermoFisher); termed complete media. Clonal HEK 293 cell lines were maintained in complete media supplemented with 0.6 mg/ml G418 (Enzo Life Sciences). Mouse inner medullary collecting duct (m-IMCD3) cells [American Type Culture Collection (ATCC)] were maintained in media consisting of DMEM/Hams F-12 50/50 Mix (DMEM F12; Corning) supplemented with penicillin streptomycin cocktail (100 U/mL) and FBS (10% v/v) (DMEM F12-10% FBS).
The mouse Inner Medullary Collecting Duct cell line (m-IMCD3) spontaneously forms cystic spheroids in 3D culture with a Type 1 collagen/Matrigel extracellular matrix. This process can be stimulated with agents which raise intracellular cAMP and is used as an in vitro model for the formation of cystic structures in the kidneys of patients with ADPKD.
Rat Collagen I (Fisher Scientific) is prepared on ice by neutralising with 1M NaOH and diluting with a 2× volume of DMEM/F12+10% FBS. This is mixed 1:1.1 with ice cold Matrigel (Corning) for coating plates (coating mix), and 1:0.93 with Matrigel for cell plating (plating mix).
The assay is conducted in the wells of a 96-well plate culture dish using a total volume of 130 μL of collagen/Matrigel/DMEM F12-10% FBS suspension in growth media for each matrix plug per individual well. Initially, 30 μL of collagen/Matrigel/DMEM F12-10% FBS (coating mix) is added into the well of a 96 well plate and the collagen is set to a gel by incubating at 37° C. for at least 15 minutes. A second layer of 100 μL collagen/Matrigel suspension (plating mix) containing m-IMCD3 cells (2.75×10^6 m-IMCD3 cells per 96-well plate) is layered over the coating mix and the collagen/Matrigel/cell mix again set to a gel by incubating at 37° C. Cell cultures are maintained at 37° C. in an atmosphere of 5% CO2, 95% air.
Between 18 and 24 h after plating, test compound(s) as DMSO stock solutions [0.1% (v/v) final DMSO concentration] and PGE2 (100 nM final concentration) in DMEM F12-10% FBS are added in quadruplicate wells per condition. Media, together with the test compound and PGE2 are replenished after 2 or 3 days. After 6 days of culture z stack images of the wells are captured using the Nikon Eclipse Ti2-E microscope. Nikon General Analysis software is used to measure the following parameters in each well: the mean cyst area, the number of cysts, and the total cyst area.
PDE4 long form activators inhibited in vitro cyst formation in m-IMCD3 cells. Data are shown in Table 4 as mean cyst area (%), compared to 100% for (DMSO+PGE2) and 0% for DMSO control.

In order of falling activity at 3 µM:
1. O=C(c1cccc2c1CCO2)N1CCc2nc(N3C4CCC3CNC4)sc2C1 [Example 236, (2-(3,8-diazabicyclo[3.2.1]octan-8-yl)-6,7-dihydrothiazolo[5,4-c]pyridin-5(4H)-yl)(2,3-dihydrobenzofuran-4-yl)methanone]  27%
2. O=C(c1ccc(C(F)F)nc1)N1CCc2nc(N3C4CCC3CNC4)sc2C1 [Example 243, (2-(3,8-diazabicyclo[3.2.1]octan-8-yl)-6,7-dihydrothiazolo[5,4-c]pyridin-5(4H)-yl)(6-(difluoromethyl)pyridin-3-yl)methanone]  10%
3. COc1cccc(OC)c1OCC(=O)N1CCc2nc(N3C4CCC3CNC4)sc2C1 [Example 172, 1-(2-(3,8-diazabicyclo[3.2.1]octan-8-yl)-6,7-dihydrothiazolo[5,4-c]pyridin-5(4H)-yl)-2-(2,6-dimethoxyphenoxy)ethan-1-one]  10%
4. COCCOc1ccccc1OCC(=O)N1CCc2nc(N3C4CCC3CNC4)sc2C1 [Example 129, 1-(2-(3,8-diazabicyclo[3.2.1]octan-8-yl)-6,7-dihydrothiazolo[5,4-c]pyridin-5(4H)-yl)-2-(2-(2-methoxyethoxy)phenoxy)ethan-1-one]  3%
5. O=C(c1cc2ccccc2cn1)N1CCc2nc(N3C4CCC3CNC4)sc2C1 [Example 192, (2-(3,8-diazabicyclo[3.2.1]octan-8-yl)-6,7-dihydrothiazolo[5,4-c]pyridin-5(4H)-yl)(isoquinolin-3-yl)methanone]  1%
6. Cc1ccccc1C(=O)N1CCc2nc(N3C4CCC3CNC4)sc2C1 [Example 194, (2-(3,8-diazabicyclo[3.2.1]octan-8-yl)-6,7-dihydrothiazolo[5,4-c]pyridin-5(4H)-yl)(o-tolyl)methanone]  1%
7. O=C(c1ccc(C(F)F)cc1)N1CCc2nc(N3C4CCC3CNC4)sc2C1 [Example 229, (2-(3,8-diazabicyclo[3.2.1]octan-8-yl)-6,7-dihydrothiazolo[5,4-c]pyridin-5(4H)-yl)(4-(difluoromethyl)phenyl)methanone]  -1%
8. Cc1ccc(C(=O)N2CCc3nc(N4C5CCC4CNC5)sc3C2)cc1 [Example 196, (2-(3,8-diazabicyclo[3.2.1]octan-8-yl)-6,7-dihydrothiazolo[5,4-c]pyridin-5(4H)-yl)(p-tolyl)methanone]  -1%
9. O=C(COc1ccccc1C(F)F)N1CCc2nc(N3C4CCC3CNC4)sc2C1 [Example 173, 1-(2-(3,8-diazabicyclo[3.2.1]octan-8-yl)-6,7-dihydrothiazolo[5,4-c]pyridin-5(4H)-yl)-2-(2-(difluoromethyl)phenoxy)ethan-1-one]  -2%
10. Cc1cncc(-c2nc3c(s2)CN(C(=O)CC2CCCC2)CC3)c1 [Example 306, 2-cyclopentyl-1-(2-(5-methylpyridin-3-yl)-6,7-dihydrothiazolo[5,4-c]pyridin-5(4H)-yl)ethan-1-one]  -3%
11. O=C(c1ccccc1F)N1CCc2nc(N3C4CCC3CNC4)sc2C1 [Example 209, (2-(3,8-diazabicyclo[3.2.1]octan-8-yl)-6,7-dihydrothiazolo[5,4-c]pyridin-5(4H)-yl)(2-fluorophenyl)methanone]  -5%
12. CC(O)(C(=O)N1CCc2nc(N3C4CCC3CNC4)sc2C1)C1CCCC1 (single isomer, unassigned) [Example 254, 1-(2-(3,8-diazabicyclo[3.2.1]octan-8-yl)-6,7-dihydrothiazolo[5,4-c]pyridin-5(4H)-yl)-2-cyclopentyl-2-hydroxypropan-1-one]  -5%

Same assay, conditions: Mus musculus, mIMCD3, 144 h, 10 μM; mean cyst area, 100% for (DMSO + PGE2) and 0% for DMSO control; 6 days of culture; read-out: % Cyst area after incubation with 10 μM test compound

In order of falling activity at 10 µM:
1. O=C(C1CCCO1)N1CCc2nc(N3C4CCC3CNC4)sc2C1 (centres unmarked) [Example 133, (2-(3,8-diazabicyclo[3.2.1]octan-8-yl)-6,7-dihydrothiazolo[5,4-c]pyridin-5(4H)-yl)(tetrahydrofuran-2-yl)methanone]  19%
2. O=C(CC1CCOCC1)N1CCc2nc(N3C4CCC3CNC4)sc2C1 [Example 3, 1-(2-(3,8-diazabicyclo[3.2.1]octan-8-yl)-6,7-dihydrothiazolo[5,4-c]pyridin-5(4H)-yl)-2-(tetrahydro-2H-pyran-4-yl)ethan-1-one]  13%
3. O=C(N1CCc2nc(N3C4CCC3CNC4)sc2C1)C1(Oc2ccccc2)CC1 [Example 31, (2-(3,8-diazabicyclo[3.2.1]octan-8-yl)-6,7-dihydrothiazolo[5,4-c]pyridin-5(4H)-yl)(1-phenoxycyclopropyl)methanone]  7%
4. CN(C(=O)N1CCc2nc(N3C4CCC3CNC4)sc2C1)C1CCCC1 [Example 62, 2-(3,8-diazabicyclo[3.2.1]octan-8-yl)-N-cyclopentyl-N-methyl-6,7-dihydrothiazolo[5,4-c]pyridine-5(4H)-carboxamide]  1%
5. CC1(C)CCN(C(=O)N2CCc3nc(N4C5CCC4CNC5)sc3C2)C1 [Example 121, (2-(3,8-diazabicyclo[3.2.1]octan-8-yl)-6,7-dihydrothiazolo[5,4-c]pyridin-5(4H)-yl)(3,3-dimethylpyrrolidin-1-yl)methanone]  0%
6. CN1CC2CCC(C1)N2c1cc2n(n1)CCN(C(=O)CC1CCC(F)(F)CC1)C2 [Example 86, 2-(4,4-difluorocyclohexyl)-1-(2-(3-methyl-3,8-diazabicyclo[3.2.1]octan-8-yl)-6,7-dihydropyrazolo[1,5-a]pyrazin-5(4H)-yl)ethan-1-one]  -1%
7. CN1CC2CCC(C1)N2c1nc2c(s1)CN(C(=O)CC1CCC(F)(F)CC1)CC2(C)C [Example 103, 2-(4,4-difluorocyclohexyl)-1-(7,7-dimethyl-2-(3-methyl-3,8-diazabicyclo[3.2.1]octan-8-yl)-6,7-dihydrothiazolo[5,4-c]pyridin-5(4H)-yl)ethan-1-one]  -1%
8. CC1(C)CCCC1C(=O)N1CCc2nc(N3C4CCC3CNC4)sc2C1 (centres unmarked) [Example 37, (2-(3,8-diazabicyclo[3.2.1]octan-8-yl)-6,7-dihydrothiazolo[5,4-c]pyridin-5(4H)-yl)(2,2-dimethylcyclopentyl)methanone]  -2%
9. O=C(COc1ccc(F)cc1)N1CCn2nc(N3C4CCC3CNC4)cc2C1 [Example 72, 1-(2-(3,8-diazabicyclo[3.2.1]octan-8-yl)-6,7-dihydropyrazolo[1,5-a]pyrazin-5(4H)-yl)-2-(4-fluorophenoxy)ethan-1-one]  -3%
10. O=C(CCc1ccc(F)nc1)N1CCc2nc(N3C4CCC3CNC4)sc2C1 [Example 142, 1-(2-(3,8-diazabicyclo[3.2.1]octan-8-yl)-6,7-dihydrothiazolo[5,4-c]pyridin-5(4H)-yl)-3-(6-fluoropyridin-3-yl)propan-1-one]  -4%
11. O=C(CC1CCC(F)(F)C1)N1CCc2nc(N3C4CCC3CNC4)sc2C1 (centres unmarked) [Example 137, 1-(2-(3,8-diazabicyclo[3.2.1]octan-8-yl)-6,7-dihydrothiazolo[5,4-c]pyridin-5(4H)-yl)-2-(3,3-difluorocyclopentyl)ethan-1-one]  -4%
12. CN1CC2CCC(C1)N2c1nc2c(s1)CN(C(=O)CC1CCCC1)CC2 [Example 75, 2-cyclopentyl-1-(2-(3-methyl-3,8-diazabicyclo[3.2.1]octan-8-yl)-6,7-dihydrothiazolo[5,4-c]pyridin-5(4H)-yl)ethan-1-one]  -4%
13. CC1(CC(=O)N2CCc3nc(N4C5CCC4CNC5)sc3C2)CCC1 [Example 130, 1-(2-(3,8-diazabicyclo[3.2.1]octan-8-yl)-6,7-dihydrothiazolo[5,4-c]pyridin-5(4H)-yl)-2-(1-methylcyclobutyl)ethan-1-one]  -5%
14. O=C(Cc1ccnc(F)c1)N1CCc2nc(N3C4CCC3CNC4)sc2C1 [Example 141, 1-(2-(3,8-diazabicyclo[3.2.1]octan-8-yl)-6,7-dihydrothiazolo[5,4-c]pyridin-5(4H)-yl)-2-(2-fluoropyridin-4-yl)ethan-1-one]  -7%
